In assay [1] the target is T1, Axl kinase domain recombinant protein (Homo sapiens, UniProt P30530).
T1 sequence (P30530 536-807 limits assumed): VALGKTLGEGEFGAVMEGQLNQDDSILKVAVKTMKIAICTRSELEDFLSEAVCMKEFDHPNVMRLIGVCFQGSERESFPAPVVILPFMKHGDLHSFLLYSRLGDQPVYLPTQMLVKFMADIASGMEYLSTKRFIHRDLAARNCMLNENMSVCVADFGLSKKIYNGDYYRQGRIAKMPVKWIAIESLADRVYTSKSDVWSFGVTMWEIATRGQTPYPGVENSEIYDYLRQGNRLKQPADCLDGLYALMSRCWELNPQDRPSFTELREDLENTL
Description: ELISA kinase activity assay, Axl. (ELISA stands for enzyme-linked immunosorbent assay.)

In assay [2] the target is c-Met kinase domain recombinant protein (Homo sapiens, UniProt P08581). Description: ELISA kinase activity assay, c-Met.
Sequence of c-Met kinase domain recombinant protein (P08581 1078-1345 limits assumed): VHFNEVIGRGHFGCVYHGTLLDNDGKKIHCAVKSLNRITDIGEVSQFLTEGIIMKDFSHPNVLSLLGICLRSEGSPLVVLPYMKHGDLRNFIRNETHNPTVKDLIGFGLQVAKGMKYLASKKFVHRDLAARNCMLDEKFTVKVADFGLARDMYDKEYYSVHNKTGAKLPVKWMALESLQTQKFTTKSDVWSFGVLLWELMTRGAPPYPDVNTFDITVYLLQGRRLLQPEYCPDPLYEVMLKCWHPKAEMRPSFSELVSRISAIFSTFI

One may read the IC50 as the concentration at which inhibition is half-maximal.

`COc1cc(-c2cnc(N)c(-c3ccc(NC(=O)c4cn(C(C)C)c(=O)n(-c5ccc(F)cc5)c4=O)cc3F)c2)ccc1OC[C@H]1COCCO1` [No. 39, (R)—N-(4-(5-(4-((1,4-dioxan-2-yl)methoxy)-3-methoxyphenyl)-2-aminopyridin-3-yl)-3-fluorophenyl)-3-(4-fluorophenyl)-1-isopropyl-2,4-dioxo-1,2,3,4-tetrahydropyrimidin-5-carboxamide]: the IC50 in assay [1] is < 10 nM; in assay [2] it was 10 to 100 nM. Regarding `CC(C)n1cc(C(=O)Nc2ccc(Oc3ccnc(-c4cnn(C)c4)c3)cc2)c(=O)n(-c2ccc(F)cc2)c1=O` [No. 25, 3-(4-fluorophenyl)-1-isopropyl-N-(4-((2-(1-methyl-1H-pyrazol-4-yl)pyridin-4-yl)oxy)phenyl)-2,4-dioxo-1,2,3,4-tetrahydropyrimidin-5-carboxamide], in assay [2], the IC50 was < 10 nM. Take `Cc1nn(C)cc1-c1cc(Oc2ccc(NC(=O)c3cn(C(C)C)c(=O)n(-c4ccc(F)cc4)c3=O)cc2F)ccn1` [No. 35, N-(4-((2-(1,3-dimethyl-1H-pyrazol-4-yl)pyridin-4-yl)oxy)-3-fluorophenyl)-3-(4-fluorophenyl)-1-isopropyl-2,4-dioxo-1,2,3,4-tetrahydropyrimidin-5-carboxamide]: the IC50 in assay [2] is 10 to 100 nM. As for `Cn1cc(-c2cc(Oc3ccc(NC(=O)c4cn(C5CCCC5)c(=O)n(-c5ccc(F)cc5)c4=O)cc3F)ccn2)cn1` [No. 11, 1-cyclopentyl-N-(3-fluoro-4-((2-(1-methyl-1H-pyrazol-4-yl)pyridin-4-yl)oxy)phenyl)-3-(4-fluorophenyl)-2,4-dioxo-1,2,3,4-tetrahydropyrimidin-5-carboxamide], the IC50 in assay [1] and in assay [2] was < 10 nM in each case.

Turning to `CC(C)n1cc(C(=O)Nc2ccc(Oc3ccnc(-c4cnn(C)c4)c3)cc2F)c(=O)n(-c2ccc(F)cc2)c1=O` [No. 26, N-(2-fluoro-4-((2-(1-methyl-1H-pyrazol-4-yl)pyridin-4-yl)oxy)phenyl)-3-(4-fluorophenyl)-1-isopropyl-2,4-dioxo-1,2,3,4-tetrahydropyrimidin-5-carboxamide], the IC50 in assay [2] was < 10 nM. On the same count and under the same terms, the same measure for `CC(C)n1cc(C(=O)Nc2ccc(Oc3ccnc(-c4cnn(C5CC5)c4)c3)c(F)c2)c(=O)n(-c2ccc(F)cc2)c1=O` [No. 33, N-(4-((2-(1-cyclopropyl-1H-pyrazol-4-yl)pyridin-4-yl)oxy)-3-fluorophenyl)-3-(4-fluorophenyl)-1-isopropyl-2,4-dioxo-1,2,3,4-tetrahydropyrimidin-5-carboxamide]: 10 to 100 nM.

As to `CC(C)n1cc(C(=O)Nc2ccc(Oc3ccnc(-c4cnn(C)c4)c3)c(F)c2)c(=O)n([C@H]2CC[C@H](C)CC2)c1=O` [No. 22, N-(3-fluoro-4-((2-(1-methyl-1H-pyrazol-4-yl)pyridin-4-yl)oxy)phenyl)-1-isopropyl-3-((1R,4R)-4-methylcyclohexyl)-2,4-dioxo-1,2,3,4-tetrahydropyrimidin-5-carboxamide], the results for the IC50 in assay [1] and in assay [2] were 10 to 100 nM and > 100 nM, respectively. On to `Cn1cc(-c2cc(Oc3ccc(NC(=O)c4cn(CCO)c(=O)n(-c5ccc(F)cc5)c4=O)cc3F)ccn2)cn1` [No. 9, N-(3-fluoro-4-((2-(1-methyl-1H-pyrazol-4-yl)pyridin-4-yl)oxy)phenyl)-3-(4-fluorophenyl)-1-(2-hydroxyethyl)-2,4-dioxo-1,2,3,4-tetrahydropyrimidin-5-carboxamide], for which the IC50 in assay [1] was > 100 nM; in assay [2], 10 to 100 nM. `CC(C)n1cc(C(=O)Nc2ccc(Oc3ccnc(-c4cnn(C)c4)c3)c(F)c2)c(=O)n(-c2cccc(F)c2)c1=O` [No. 17, N-(3-fluoro-4-((2-(1-methyl-1H-pyrazol-4-yl)pyridin-4-yl)oxy)phenyl)-3-(3-fluorophenyl)-1-isopropyl-2,4-dioxo-1,2,3,4-tetrahydropyrimidin-5-carboxamide]: the IC50 in assay [1] and in assay [2] was < 10 nM throughout. Take `CC(C)n1cc(C(=O)Nc2ccc(Oc3ccnc(-c4cnn(CC(C)(C)O)c4)c3)c(F)c2)c(=O)n(-c2ccc(F)cc2)c1=O` [No. 32, N-(3-fluoro-4-((2-(1-(2-hydroxy-2-methylpropyl)-1H-pyrazol-4-yl)pyridin-4-yl)oxy)phenyl)-3-(4-fluorophenyl)-1-isopropyl-2,4-dioxo-1,2,3,4-tetrahydropyrimidin-5-carboxamide]: the IC50 in assay [2] is 10 to 100 nM. On to `Cn1cc(-c2cc(Oc3ccc(NC(=O)c4cn(CC5CCCC5)c(=O)n(-c5ccc(F)cc5)c4=O)cc3F)ccn2)cn1` [No. 6, 1-(cyclopentylmethyl)-N-(3-fluoro-4-((2-(1-methyl-1H-pyrazol-4-yl)pyridin-4-yl)oxy)phenyl)-3-(4-fluorophenyl)-2,4-dioxo-1,2,3,4-tetrahydropyrimidin-5-carboxamide], for which the IC50 in assay [1] and in assay [2] was 10 to 100 nM each time. `C#CCn1cc(C(=O)Nc2ccc(Oc3ccnc(-c4cnn(C)c4)c3)c(F)c2)c(=O)n(-c2ccc(F)cc2)c1=O` [No. 8, N-(3-fluoro-4-((2-(1-methyl-1H-pyrazol-4-yl)pyridin-4-yl)oxy)phenyl)-3-(4-fluorophenyl)-2,4-dioxo-1-propargyl-1,2,3,4-tetrahydropyrimidin-5-carboxamide]: the IC50 in assay [1] and in assay [2] was 10 to 100 nM throughout. Consider `CCn1cc(C(=O)Nc2ccc(Oc3ccncc3-c3cnn(C)c3)cc2)c(=O)n(-c2ccc(F)cc2)c1=O` [No. 52, 3-(4-fluorophenyl)-1-ethyl-N-(4-((3-(1-methyl-1H-pyrazol-4-yl)pyridin-4-yl)oxy)phenyl)-2,4-dioxo-1,2,3,4-tetrahydropyrimidin-5-carboxamide], for which, in assay [2], the IC50 fell in the range of 10 to 100 nM. As to `Cn1cc(-c2cnccc2Oc2ccc(NC(=O)c3cn(C)c(=O)n(-c4ccc(F)cc4)c3=O)cc2)cn1` [No. 53, 3-(4-fluorophenyl)-1-methyl-N-(4-((3-(1-methyl-1H-pyrazol-4-yl)pyridin-4-yl)oxy)phenyl)-2,4-dioxo-1,2,3,4-tetrahydropyrimidin-5-carboxamide], the IC50 in assay [2] was > 100 nM. As to `COc1cc(NC(=O)c2cn(C(C)C)c(=O)n(-c3ccc(F)cc3)c2=O)ccc1Oc1ccnc(-c2cnn(C)c2)c1` [No. 58, 3-(4-fluorophenyl)-1-isopropyl-N-(3-methoxy-4-((2-(1-methyl-1H-pyrazol-4-yl)pyridin-4-yl)oxy)phenyl)-2,4-dioxo-1,2,3,4-tetrahydropyrimidin-5-carboxamide], in assay [1], the IC50 was > 100 nM. On to `CC(C)n1cc(C(=O)Nc2ccc(Oc3ccncc3-c3cnn(C)c3)cc2)c(=O)n(-c2ccc(F)cc2)c1=O` [No. 36, 3-(4-fluorophenyl)-1-isopropyl-N-(4-((3-(1-methyl-1H-pyrazol-4-yl)pyridin-4-yl)oxy)phenyl)-2,4-dioxo-1,2,3,4-tetrahydropyrimidin-5-carboxamide], for which, in assay [2], the IC50 lay within 10 to 100 nM.

With `CC(C)n1cc(C(=O)Nc2ccc(Oc3ccnc(-c4cnn(C)c4)c3)c(F)c2F)c(=O)n(-c2ccc(F)cc2)c1=O` [No. 27, N-(2,3-difluoro-4-((2-(1-methyl-1H-pyrazol-4-yl)pyridin-4-yl)oxy)phenyl)-3-(4-fluorophenyl)-1-isopropyl-2,4-dioxo-1,2,3,4-tetrahydropyrimidin-5-carboxamide], the IC50 in assay [2] was 10 to 100 nM.

With `CC(C)n1cc(C(=O)Nc2cc(F)c(Oc3ccnc(-c4cnn(C)c4)c3)cc2F)c(=O)n(-c2ccc(F)cc2)c1=O` [No. 29, N-(2,5-difluoro-4-((2-(1-methyl-1H-pyrazol-4-yl)pyridin-4-yl)oxy)phenyl)-3-(4-fluorophenyl)-1-isopropyl-2,4-dioxo-1,2,3,4-tetrahydropyrimidin-5-carboxamide], the IC50 in assay [2] is < 10 nM. With `CC(C)n1cc(C(=O)Nc2ccc(Oc3ccnc(-c4cnn(CCN5CCN(C)CC5)c4)c3)c(F)c2)c(=O)n(-c2ccc(F)cc2)c1=O` [No. 34, N-(3-fluoro-4-((2-(1-(2-(4-methylpiperazin-1-yl)ethyl)-1H-pyrazol-4-yl)pyridin-4-yl)oxy)phenyl)-3-(4-fluorophenyl)-1-isopropyl-2,4-dioxo-1,2,3,4-tetrahydropyrimidin-5-carboxamide], in assay [2], the IC50 is 10 to 100 nM.

Take `CC(C)n1cc(C(=O)Nc2ccc(Oc3ccnc(-c4cnn(C)c4)c3)c(F)c2)c(=O)n(-c2ccc(F)cc2)c1=O` [No. 3, N-(3-fluoro-4-((2-(1-methyl-1H-pyrazol-4-yl)pyridin-4-yl)oxy)phenyl)-3-(4-fluorophenyl)-1-isopropyl-2,4-dioxo-1,2,3,4-tetrahydropyrimidin-5-carboxamide]: the IC50 in assay [2] was < 10 nM. For the molecule `Cn1cc(-c2cnccc2Oc2ccc(NC(=O)c3cn(CC4CCOCC4)c(=O)n(-c4ccc(F)cc4)c3=O)cc2)cn1` [No. 54, 3-(4-fluorophenyl)-N-(4-((3-(1-methyl-1H-pyrazol-4-yl)pyridin-4-yl)oxy)phenyl)-2,4-dioxo-1-((tetrahydro-2H-pyran-4-yl)methyl)-1,2,3,4-tetrahydropyrimidin-5-carboxamide], the IC50 in assay [2] fell in the range of 10 to 100 nM. For the molecule `CC(C)n1cc(C(=O)Nc2ccc(Oc3ccnc(-c4cn[nH]c4)c3)c(F)c2)c(=O)n(-c2ccc(F)cc2)c1=O` [No. 31, N-(4-((2-(1H-pyrazol-4-yl)pyridin-4-yl)oxy)-3-fluorophenyl)-3-(4-fluorophenyl)-1-isopropyl-2,4-dioxo-1,2,3,4-tetrahydropyrimidin-5-carboxamide], the IC50 in assay [2] was in the range of 10 to 100 nM. On to `CC(C)n1cc(C(=O)Nc2cc(F)c(Oc3ccnc(-c4cnn(C)c4)c3)c(F)c2)c(=O)n(-c2ccc(F)cc2)c1=O` [No. 28, N-(3,5-difluoro-4-((2-(1-methyl-1H-pyrazol-4-yl)pyridin-4-yl)oxy)phenyl)-3-(4-fluorophenyl)-1-isopropyl-2,4-dioxo-1,2,3,4-tetrahydropyrimidin-5-carboxamide], for which the IC50 in assay [2] is < 10 nM.

The record behind these values is patent US12479850B2, “Compound having Axl and c-Met kinase inhibitory activity, preparation thereof and application thereof” (Shanghai Institute of Materia Medica, Chinese Academy of …, priority 2019, dated 2025).
